Our source for the inhibition and IC50 values is ChEMBL document CHEMBL1145692, “New Type of Mono-tetrahydrofuran Ring Acetogenins from Goniothalamus donnaiensis” (J Nat Prod, 1997).

Where only a bound is given, the exact number is not on record here.

Test [1] has as its system KB. Briefly: Cytotoxicity against human KB cells at 10 ug/ml. Format: functional.
The test system of a further test is HCT-8. Briefly: Cytotoxicity against human HCT8 cells. Format: functional, cell-based.
Test [2] has as its system KB. The experiment in a line: Cytotoxicity against human KB cells. Format: functional, cell-based.

On to `CCCCCCCCCCCCCC[C@H](O)[C@@H](O)CC[C@H](O)[C@@H]1CC[C@@H](CCCCC[C@@H](O)CC2=CC(C)(O)OC2=O)O1` (mixture of isomers) [DONNAIENIN B/34-EPI-DONNAIENIN B], for which, in the test with KB [1], 10 µg/mL produced 53.8% inhibition.

On to `CCCCCCCCCCCC[C@@H](O)[C@H]1CC[C@H]([C@H](O)CCCCCCCCCC[C@@H](O)CC2=CC(C)(O)OC2=O)O1` (mixture of isomers), for which the 50% inhibitory concentration (IC50) (in general, the point on the concentration scale where inhibition reaches its midpoint) was below 10 µg/mL in the test on HCT-8 and below 1 µg/mL in the test with KB [2].
